Like-named read-outs stand apart in the source and are kept apart here.
Key:
Assay in all cases: SelectScreen Z-LYTE kinase activity assay (SI Table 6)
Assay type in all cases: biochemical
[1] = molecular target: protein kinases of the Z-LYTE panel (Homo sapiens, UniProt P24941)
Outline: (§1)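 Single-point profiling, 1 μM 1938; LanthaScreen binding, Adapta or Z-LYTE read-outs; 133 protein + 7 lipid kinases.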

[2] = molecular target: protein kinases of the Z-LYTE panel (Homo sapiens, UniProt P07949)
protein kinases of the Z-LYTE panel (Homo sapiens, UniProt P07949), sequence (P07949 29-1114): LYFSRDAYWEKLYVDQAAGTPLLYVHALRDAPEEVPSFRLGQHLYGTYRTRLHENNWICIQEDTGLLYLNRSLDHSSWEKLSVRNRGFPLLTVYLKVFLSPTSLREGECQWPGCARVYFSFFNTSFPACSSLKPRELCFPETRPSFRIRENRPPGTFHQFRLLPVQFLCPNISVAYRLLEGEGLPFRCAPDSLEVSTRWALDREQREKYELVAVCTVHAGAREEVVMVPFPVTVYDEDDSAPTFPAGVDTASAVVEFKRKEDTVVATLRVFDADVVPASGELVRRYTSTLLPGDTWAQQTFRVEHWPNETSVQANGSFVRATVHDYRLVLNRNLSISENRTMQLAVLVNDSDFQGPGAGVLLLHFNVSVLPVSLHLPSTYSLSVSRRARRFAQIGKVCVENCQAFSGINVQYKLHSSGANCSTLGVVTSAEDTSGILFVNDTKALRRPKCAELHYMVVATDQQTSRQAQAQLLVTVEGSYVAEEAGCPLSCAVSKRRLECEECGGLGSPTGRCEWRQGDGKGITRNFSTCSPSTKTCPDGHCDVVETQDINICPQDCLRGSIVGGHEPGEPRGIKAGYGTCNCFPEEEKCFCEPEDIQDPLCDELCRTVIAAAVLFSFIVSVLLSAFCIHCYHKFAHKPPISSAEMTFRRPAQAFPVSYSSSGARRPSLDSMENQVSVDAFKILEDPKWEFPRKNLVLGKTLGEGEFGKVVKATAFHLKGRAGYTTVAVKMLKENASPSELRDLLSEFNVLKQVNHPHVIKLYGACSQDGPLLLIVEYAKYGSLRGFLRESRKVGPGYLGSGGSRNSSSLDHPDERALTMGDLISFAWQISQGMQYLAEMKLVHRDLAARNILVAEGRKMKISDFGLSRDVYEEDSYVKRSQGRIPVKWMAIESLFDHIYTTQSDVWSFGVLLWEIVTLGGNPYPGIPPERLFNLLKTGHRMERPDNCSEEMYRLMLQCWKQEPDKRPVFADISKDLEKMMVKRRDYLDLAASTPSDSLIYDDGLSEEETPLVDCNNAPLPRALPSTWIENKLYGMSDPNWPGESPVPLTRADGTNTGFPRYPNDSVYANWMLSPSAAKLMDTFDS
Outline: as §1

[3] = molecular target: protein kinases of the Z-LYTE panel (Homo sapiens, UniProt P42345)
Outline: as §1

[4] = molecular target: protein kinases of the Z-LYTE panel (Homo sapiens, UniProt P17252)
Outline: as §1

[5] = molecular target: T1, protein kinases of the Z-LYTE panel (Homo sapiens, UniProt Q02156)
T1 sequence (Q02156 1-737): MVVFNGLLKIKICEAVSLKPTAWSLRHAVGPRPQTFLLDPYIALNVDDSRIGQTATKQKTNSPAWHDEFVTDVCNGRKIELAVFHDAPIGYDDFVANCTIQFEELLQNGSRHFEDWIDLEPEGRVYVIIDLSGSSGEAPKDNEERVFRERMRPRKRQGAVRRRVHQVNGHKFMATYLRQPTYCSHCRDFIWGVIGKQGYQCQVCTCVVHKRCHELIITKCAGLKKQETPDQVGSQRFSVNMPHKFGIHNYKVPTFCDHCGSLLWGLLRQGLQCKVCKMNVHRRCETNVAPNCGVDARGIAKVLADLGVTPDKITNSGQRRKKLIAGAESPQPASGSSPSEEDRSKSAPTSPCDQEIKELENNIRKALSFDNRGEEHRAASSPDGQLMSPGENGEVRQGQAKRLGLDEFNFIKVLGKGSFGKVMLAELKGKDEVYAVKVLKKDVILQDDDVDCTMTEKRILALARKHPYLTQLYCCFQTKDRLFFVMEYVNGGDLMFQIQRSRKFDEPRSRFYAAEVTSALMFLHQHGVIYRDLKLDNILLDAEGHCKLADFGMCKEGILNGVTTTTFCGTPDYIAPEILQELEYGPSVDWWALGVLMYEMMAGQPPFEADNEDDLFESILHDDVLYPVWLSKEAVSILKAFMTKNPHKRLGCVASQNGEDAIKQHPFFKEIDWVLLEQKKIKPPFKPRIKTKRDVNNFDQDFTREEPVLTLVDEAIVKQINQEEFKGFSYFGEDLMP
Outline: as §1

[6] = molecular target: protein kinases of the Z-LYTE panel (Homo sapiens, UniProt Q16288)
protein kinases of the Z-LYTE panel (Homo sapiens, UniProt Q16288), sequence (Q16288 32-839): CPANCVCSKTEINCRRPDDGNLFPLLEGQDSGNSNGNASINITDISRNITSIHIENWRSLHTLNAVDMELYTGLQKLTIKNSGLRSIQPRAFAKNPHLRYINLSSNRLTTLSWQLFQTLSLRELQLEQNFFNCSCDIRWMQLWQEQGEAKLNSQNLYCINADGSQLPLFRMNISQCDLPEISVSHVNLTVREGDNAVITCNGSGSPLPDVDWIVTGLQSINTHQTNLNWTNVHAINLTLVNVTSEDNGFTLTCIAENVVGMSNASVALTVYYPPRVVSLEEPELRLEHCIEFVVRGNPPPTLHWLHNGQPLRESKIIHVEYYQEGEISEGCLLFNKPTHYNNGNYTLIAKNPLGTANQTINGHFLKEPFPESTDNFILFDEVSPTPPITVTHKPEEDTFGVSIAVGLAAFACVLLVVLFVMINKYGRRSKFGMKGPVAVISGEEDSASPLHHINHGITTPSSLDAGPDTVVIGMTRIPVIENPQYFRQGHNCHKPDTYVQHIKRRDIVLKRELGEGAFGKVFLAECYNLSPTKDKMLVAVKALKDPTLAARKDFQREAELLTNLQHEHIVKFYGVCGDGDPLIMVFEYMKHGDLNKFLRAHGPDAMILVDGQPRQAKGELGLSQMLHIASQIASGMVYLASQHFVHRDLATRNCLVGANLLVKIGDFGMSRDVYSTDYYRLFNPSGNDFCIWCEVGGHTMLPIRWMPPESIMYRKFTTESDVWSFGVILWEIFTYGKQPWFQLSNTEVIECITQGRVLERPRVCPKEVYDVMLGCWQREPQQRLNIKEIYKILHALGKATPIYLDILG
Outline: as §1

[7] = molecular target: protein kinases of the Z-LYTE panel (Homo sapiens, UniProt Q9P286)
protein kinases of the Z-LYTE panel (Homo sapiens, UniProt Q9P286), sequence (Q9P286 whole entry): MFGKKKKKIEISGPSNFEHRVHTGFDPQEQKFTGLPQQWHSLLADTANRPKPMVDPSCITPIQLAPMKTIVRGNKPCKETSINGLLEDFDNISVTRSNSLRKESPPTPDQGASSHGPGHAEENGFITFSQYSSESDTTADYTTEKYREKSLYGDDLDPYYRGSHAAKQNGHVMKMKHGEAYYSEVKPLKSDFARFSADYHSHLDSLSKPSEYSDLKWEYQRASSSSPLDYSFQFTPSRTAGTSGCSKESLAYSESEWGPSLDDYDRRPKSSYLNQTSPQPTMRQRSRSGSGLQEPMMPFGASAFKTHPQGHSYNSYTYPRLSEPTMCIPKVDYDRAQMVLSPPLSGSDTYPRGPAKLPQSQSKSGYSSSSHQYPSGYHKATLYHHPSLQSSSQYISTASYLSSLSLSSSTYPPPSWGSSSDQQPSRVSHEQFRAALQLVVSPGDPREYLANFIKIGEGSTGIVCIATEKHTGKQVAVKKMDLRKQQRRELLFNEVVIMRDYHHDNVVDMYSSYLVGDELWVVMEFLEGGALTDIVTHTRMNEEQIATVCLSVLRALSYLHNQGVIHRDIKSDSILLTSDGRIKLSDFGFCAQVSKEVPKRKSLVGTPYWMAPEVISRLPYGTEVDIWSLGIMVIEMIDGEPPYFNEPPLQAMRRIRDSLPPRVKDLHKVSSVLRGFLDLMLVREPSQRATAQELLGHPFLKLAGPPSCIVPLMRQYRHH
Outline: as §1

[8] = molecular target: protein kinases of the Z-LYTE panel (Homo sapiens, UniProt P10721)
protein kinases of the Z-LYTE panel (Homo sapiens, UniProt P10721), sequence (P10721 26-976): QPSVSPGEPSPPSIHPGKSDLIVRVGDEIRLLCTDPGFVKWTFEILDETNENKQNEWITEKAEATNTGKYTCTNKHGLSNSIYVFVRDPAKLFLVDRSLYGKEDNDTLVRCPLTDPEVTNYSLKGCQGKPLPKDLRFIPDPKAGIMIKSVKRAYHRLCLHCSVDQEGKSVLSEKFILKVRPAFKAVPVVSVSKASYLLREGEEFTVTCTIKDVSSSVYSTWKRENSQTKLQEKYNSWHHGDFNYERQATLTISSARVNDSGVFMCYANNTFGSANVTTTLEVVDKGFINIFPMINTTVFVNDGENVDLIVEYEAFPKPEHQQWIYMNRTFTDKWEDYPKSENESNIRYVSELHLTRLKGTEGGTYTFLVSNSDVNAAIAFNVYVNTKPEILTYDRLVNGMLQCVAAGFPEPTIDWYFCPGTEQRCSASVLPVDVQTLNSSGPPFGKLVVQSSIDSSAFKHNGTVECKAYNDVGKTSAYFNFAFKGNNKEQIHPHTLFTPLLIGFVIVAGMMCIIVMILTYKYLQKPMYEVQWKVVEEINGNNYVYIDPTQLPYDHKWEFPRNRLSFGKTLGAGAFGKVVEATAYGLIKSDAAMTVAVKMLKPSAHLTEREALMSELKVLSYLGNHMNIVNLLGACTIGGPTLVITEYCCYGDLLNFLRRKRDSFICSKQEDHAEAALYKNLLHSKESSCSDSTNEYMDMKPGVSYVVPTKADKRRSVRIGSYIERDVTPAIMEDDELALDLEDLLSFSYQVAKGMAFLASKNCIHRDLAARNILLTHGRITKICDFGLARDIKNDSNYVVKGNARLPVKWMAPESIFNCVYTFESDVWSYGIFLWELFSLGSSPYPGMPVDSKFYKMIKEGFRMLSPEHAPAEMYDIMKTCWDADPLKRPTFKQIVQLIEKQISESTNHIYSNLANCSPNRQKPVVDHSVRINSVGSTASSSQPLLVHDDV
Outline: as §1

[9] = molecular target: T2, protein kinases of the Z-LYTE panel (Homo sapiens, UniProt P36896)
T2 sequence (P36896 24-505): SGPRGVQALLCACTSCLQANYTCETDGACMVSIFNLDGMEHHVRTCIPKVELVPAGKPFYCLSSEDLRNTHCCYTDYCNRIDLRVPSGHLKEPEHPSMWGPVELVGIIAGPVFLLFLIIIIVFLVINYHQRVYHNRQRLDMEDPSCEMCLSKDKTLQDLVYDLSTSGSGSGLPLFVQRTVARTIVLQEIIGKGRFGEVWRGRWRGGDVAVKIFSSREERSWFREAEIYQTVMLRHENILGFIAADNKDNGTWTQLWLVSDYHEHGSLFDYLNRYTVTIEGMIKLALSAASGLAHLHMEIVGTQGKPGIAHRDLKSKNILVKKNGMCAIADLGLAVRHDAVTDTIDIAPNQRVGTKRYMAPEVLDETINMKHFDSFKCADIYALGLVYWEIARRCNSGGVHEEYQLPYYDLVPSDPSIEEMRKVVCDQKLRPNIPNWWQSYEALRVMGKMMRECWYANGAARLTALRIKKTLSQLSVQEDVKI
Outline: as §1

CCN1CCN(c2ccc(Nc3cc(Nc4cccc5c4N(C(C)=O)CC5)ccn3)cc2)CC1 [Compound 1938] was tested, and the inhibition at 1 µM ([1]; read-out: % Inhibition Point 1) was 1.74%, the inhibition at 1 µM ([1]; read-out: % Inhibition Point 2) was 3.28% and the inhibition at 1 µM ([1]; read-out: % Inhibition mean) was 2.51%. It also gave an inhibition at 1 µM ([2]; read-out: % Inhibition Point 1) of 15%, an inhibition at 1 µM ([2]; read-out: % Inhibition Point 2) of 15% and an inhibition at 1 µM ([2]; read-out: % Inhibition mean) of 15%. For the same compound, the inhibition at 1 µM ([3]; read-out: % Inhibition Point 1) was -3.66%, the inhibition at 1 µM ([3]; read-out: % Inhibition Point 2) was -2.5% and the inhibition at 1 µM ([3]; read-out: % Inhibition mean) was -3%. The inhibition at 1 µM ([4]; read-out: % Inhibition Point 1) was 13%, the inhibition at 1 µM ([4]; read-out: % Inhibition Point 2) was 12% and the inhibition at 1 µM ([4]; read-out: % Inhibition mean) was 13%. For the same compound, the inhibition at 1 µM ([5]; read-out: % Inhibition Point 1) was 1%, the inhibition at 1 µM ([5]; read-out: % Inhibition Point 2) was 2% and the inhibition at 1 µM ([5]; read-out: % Inhibition mean) was 1.57%. For the same compound, the inhibition at 1 µM ([6]; read-out: % Inhibition Point 1) was 12%, the inhibition at 1 µM ([6]; read-out: % Inhibition Point 2) was 14% and the inhibition at 1 µM ([6]; read-out: % Inhibition mean) was 13%. The inhibition at 1 µM ([7]; read-out: % Inhibition Point 1) was 0.526%, the inhibition at 1 µM ([7]; read-out: % Inhibition Point 2) was 3.33% and the inhibition at 1 µM ([7]; read-out: % Inhibition mean) was 2%. For the same compound, the inhibition at 1 µM ([8]; read-out: % Inhibition Point 1) was 6.43%, the inhibition at 1 µM ([8]; read-out: % Inhibition Point 2) was 8% and the inhibition at 1 µM ([8]; read-out: % Inhibition mean) was 7%. For the same compound, the inhibition at 1 µM ([9]; read-out: % Inhibition Point 1) was -27%, the inhibition at 1 µM ([9]; read-out: % Inhibition Point 2) was -3% and the inhibition at 1 µM ([9]; read-out: % Inhibition mean) was -15%.

— PMC7614683, “A small molecule PI3Kα activator for cardioprotection and neuroregeneration” (Nature, 2023)
